Assays:
[1] = test system: subjects with primary insomnia; assay: 001 Study Part B: next day KSS, DSST, PVT; format: in vivo, human
From the text: After the initial Screening visit, eligible subjects were scheduled to return to the clinic for 2 days during the Screening Period to conduct screening/baseline PSGs. These two days occurred at least 3 days after the initial Screening visit and within a window from Day-7 to Day-6 (±2 days). The first PSG was used to screen for sleep apnea and periodic limb movements in sleep (PLMS) and serve as the first baseline PSG. The second PSG was used as the second baseline PSG. Specific PSG variables were used to determine whether subjects met PSG inclusion criteria, and the average of PSG variables from these two PSGs was used as Baseline for this PD measure. Subjects who had met PSG inclusion criteria returned to the clinic on Day-1 for additional baseline procedures and randomization. Subjects were not allowed to nap on Day 1. On the evening of Day 1, after fasting a minimum of 3 hours, study drug was administered 30 minutes prior to the subject's habitual bedtime (lights-out), as calculated from the sleep diary for the first PSG during the Screening Period. PK blood samples were collected at prespecified timepoints, and PD assessments were performed. PSG was recorded on Day 1, postdose. Subjects were administered additional PD assessments each morning on Day 1 through Day 6. These assessments included the KSS, DSST, and PVT, in order to assess daytime sleepiness, level of alertness, and ability to concentrate. The KSS and DSST were also administered 5 minutes predose and 25 minutes postdose on Day 1, just prior to lights-out. Waketime Questionnaires were administered after the PD assessments within 15 minutes of lights-on, on Day 1 to Day 6. Time and duration of naps was recorded on Day 2.
Part B subjects were administered the KSS, DSST, and PVT within 15 minutes after lights-on specifically in that order, on each morning from Day 1 through Day 6, followed by the Waketime Questionnaire. The KSS and DSST were also administered 5 minutes predose and 25 minutes postdose on Day 1 (just prior to lights-out).

[2] = 001 Study Part B: plasma PK of compound A; format: in vivo, human; conditions: subjects with primary insomnia, single evening dose
Protocol: For subjects in Part B, blood samples for measurements of plasma concentrations of compound A were obtained by direct venipuncture on Day 1 predose and at 0.5, 9, 12, 24, 36, 60, 84, 108, 156, and 228 hours postdose.
Plasma concentrations of compound A were measured using a validated liquid chromatography-mass spectrometry/mass spectrometry (LC-MS/MS) assay.

SMILES: Cc1ncc(OC[C@@]2(c3cccc(F)c3)C[C@H]2C(=O)Nc2ccc(F)cn2)c(C)n1 [Compound A, (1R,2 S)-2-(((2,4-dimethylpyrimidin-5-yl)oxy)methyl)-2-(3-fluorophenyl)-N-(5-fluoropyridin-2-yl) cyclopropanecarboxamide]
- next day effects on KSS, DSST, or PVT ([1]; any dose of compound A (2.5, 10, 25 mg), zolpidem 10 mg): no clinically significant next day effects
- measures of next-day residual sleepiness ([1]; single 25 mg evening dose): some individuals at this dose exhibited increases from baseline
- concentration-time profiles in Part B compared with Part A [2]: approximately similar to their corresponding dose groups in Part A

Reference: US11026944B2, “Compositions and methods for treating insomnia” (Eisai R&D Management Co., Ltd., priority 2014, dated 2021)
